# According to the supplement of paper PMC10307832:
# Tests used:
# Assay in all cases: relative viability (nuclei count vs DMSO), 5 days (fraction); higher = more cells survive
# R406 + Navitoclax = compound: COc1cc(Nc2ncc(F)c(Nc3ccc4c(n3)NC(=O)C(C)(C)O4)n2)cc(OC)c1OC [R406] + CC1(C)CCC(c2ccc(Cl)cc2)=C(CN2CCN(c3ccc(C(=O)NS(=O)(=O)c4ccc(N[C@H](CCN5CCOCC5)CSc5ccccc5)c(S(=O)(=O)C(F)(F)F)c4)cc3)CC2)C1 [Navitoclax] (partner 0.5 µM)
# Procedure, shortened: (§1)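 Lung cancer cell lines in 1536-well plates got either a single drug or a fixed anchor-drug dose together with five library-drug doses (not always all listed) in √10 steps, by pin tool, on the day after seeding. Nuclei were counted after 5 days, and relative viability is the treated-to-vehicle ratio of nuclei counts. Values are medians of duplicate plates.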
# Daporinad + Tozasertib = compound: O=C(/C=C/c1cccnc1)NCCCCC1CCN(C(=O)c2ccccc2)CC1 [Daporinad] + Cc1cc(Nc2cc(N3CCN(C)CC3)nc(Sc3ccc(NC(=O)C4CC4)cc3)n2)n[nH]1 [Tozasertib] (partner 0.1 µM)
# Procedure, shortened: as §1
# R406 = compound: COc1cc(Nc2ncc(F)c(Nc3ccc4c(n3)NC(=O)C(C)(C)O4)n2)cc(OC)c1OC [R406]
# Procedure, shortened: (§2)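 After an overnight hold at 37 °C, lung cancer cell lines in 1536-well plates were pinned with five library-drug doses (not always all listed), each √10 from the next, on vehicle-anchored plates. The cells stayed 5 days without fresh medium, then a one-step fix, permeabilisation and Hoechst stain preceded 4× imaging and MetaXpress nuclear counts. A plate passed only with control CV under 25% and at least one doubling. Viability is the median, over plates, of treated-well nuclei relative to vehicle-well nuclei.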
# Daporinad = compound: O=C(/C=C/c1cccnc1)NCCCCC1CCN(C(=O)c2ccccc2)CC1 [Daporinad]
# Procedure, shortened: as §2
cell line,measurement,setting,value
UMC-11,relative viability,R406 + Navitoclax; first compound 0.08 µM,0.357
same,relative viability,R406 + Navitoclax; first compound 0.253 µM,0.321
same,relative viability,R406 + Navitoclax; first compound 0.8 µM,0.295
same,relative viability,R406 + Navitoclax; first compound 2.53 µM,0.288
same,relative viability,R406 + Navitoclax; first compound 8 µM,0.191
same,relative viability,Daporinad + Tozasertib; first compound 0.0005 µM,0.21
same,relative viability,Daporinad + Tozasertib; first compound 0.001581 µM,0.208
same,relative viability,Daporinad + Tozasertib; first compound 0.005 µM,0.207
same,relative viability,Daporinad + Tozasertib; first compound 0.01581 µM,0.2
same,relative viability,R406; 0.08 µM,0.964
same,relative viability,R406; 0.253 µM,1.15
same,relative viability,R406; 0.8 µM,1.16
same,relative viability,R406; 2.53 µM,0.861
same,relative viability,R406; 8 µM,0.481
same,relative viability,Daporinad; 0.0005 µM,0.963
same,relative viability,Daporinad; 0.001581 µM,1.07
same,relative viability,Daporinad; 0.005 µM,1.03
same,relative viability,Daporinad; 0.01581 µM,1.05
